For the assay, the system named is BML-17. Put plainly: Hemagglutination-inhibition test with BML-17 and trypsin-treated rabbit erythrocytes. Type of assay: cell-based, Bryopsis maxima. To be noted: for Minimum inhibitory concentration: inhibition of BML-17 (agglutination titer 4) agglutination of TRBC; for Inhibition of agglutinating activity of BML-17 (in words): TRBC. The procedure: Hemagglutinating activity was measured using a micro titer method. Twenty-five μl of serially two-fold dilutions of each purified fraction solution adjusted with saline was placed on a micro titer plate. Each diluted solution was supplemented with 25 μl of a 2% suspension of trypsin-treated rabbit erythrocytes and was gently stirred. The mixture was allowed to stand at room temperature for 1.5 hours and agglutination was observed. Agglutination was evaluated with naked eye. Agglutination of 50% or greater percentage of red blood cells was evaluated as positive. Agglutinating activity was given by agglutination titer, i.e., the protein concentration of maximum diluent showing agglutinating activity.
In this Example, trypsin-treated rabbit red blood cells (TRBC) were used as red blood cells. TRBC was prepared as follows. First, 2 ml of blood was collected from the ear of a rabbit kept in laboratory. The blood sample was washed 3 times with about 50 ml of saline, and was supplemented with 50 ml of saline to obtain a 2% rabbit blood cell suspension. The solution was supplemented with 1/10 volume of 0.5% trypsin in saline, and was allowed to stand at 37° C. for 1.5 hours. The trypsin-treated red blood cells were then washed 3 times with saline, and were supplemented with 45 ml of saline to obtain a 2% suspension of trypsin-treated rabbit erythrocytes (or blood cells) (TRBC).
Hemagglutination-inhibition test was performed according to the following procedure. First, each 25 μl of serially two-fold dilutions of sugar solution in saline was placed on a micro titer plate. The concentration of the original solutions of sugars examined was 100 mM for monosaccharides and oligosaccharides, and 2 mg/ml for glycoproteins. Each solution was mixed with 25 μl of BML-17 solution that had been adjusted to an agglutination titer of 4, and allowed to stand for 1.5 hours at room temperature after gentle stirring. Then, 25 μl of TRBC was added, and the mixture was allowed to stand for 2 hours at room temperature to observe hemagglutination inhibitory capability. The presence or absence of hemagglutination inhibitory capability was determined by naked eye. The test was positive when no hemagglutination occurred in about 100% of the red blood cells.
The hemagglutination inhibition test used D-glucose, D-galactose, D-mannose, N-acetyl-D-glucosamine, N-acetyl-D-galactosamine, D-xylose, L-fucose, fructose, lactose, and raffinose as monosaccharides and oligosaccharides. As glycoproteins, mucin (bovine submaxillary gland) and asialomucin, fetuin (type III, calf serum) and asialofetuin, transferrin (human) and asialotransferrin, α1-acid glycoprotein (human) and alialo-α1-acid glycoprotein, and yeast mannan were used.

[1] abbreviates: monosaccharides and oligosaccharides.

Consider `O=C[C@H](O)[C@@H](O)[C@@H](O)[C@H](O)CO` [D-Galactose], for which the Minimum inhibitory concentration entry under setting [1] was “— (No inhibition at 100 mM of mono- or oligosaccharides)”. Take `O=C[C@H](O)[C@@H](O)[C@H](O)[C@H](O)CO` [D-Glucose]: under setting [1], the Minimum inhibitory concentration result was “— (No inhibition at 100 mM of mono- or oligosaccharides)”.

On to `O=C[C@H](O)[C@@H](O)[C@H](O)CO` [D-Xylose], for which the Minimum inhibitory concentration result under setting [1] was “— (No inhibition at 100 mM of mono- or oligosaccharides)”. On to `O=C(CO)[C@@H](O)[C@H](O)[C@H](O)CO` [Fructose], for which, under setting [1], the Minimum inhibitory concentration entry is “— (No inhibition at 100 mM of mono- or oligosaccharides)”. For `C[C@H](O)[C@@H](O)[C@@H](O)[C@H](O)C=O` [L-Fucose], under setting [1], the Minimum inhibitory concentration entry is on record as “— (No inhibition at 100 mM of mono- or oligosaccharides)”. Consider `OC[C@H]1O[C@@H](O[C@H]2[C@H](O)[C@@H](O)C(O)O[C@@H]2CO)[C@H](O)[C@@H](O)[C@H]1O` (some centres unmarked) [Lactose], for which the Minimum inhibitory concentration entry under setting [1] is on record as “— (No inhibition at 100 mM of mono- or oligosaccharides)”.

`CC(=O)N[C@H]1C(O)O[C@H](CO)[C@H](O)[C@@H]1O` (stereo partly drawn) [N-Acetyl-D-galactosamine]: the Minimum inhibitory concentration entry under setting [1] is recorded as “— (No inhibition at 100 mM of mono- or oligosaccharides)”.

With `CC(=O)N[C@H]1C(O)O[C@H](CO)[C@@H](O)[C@@H]1O` (stereo partly drawn) [N-Acetyl-D-glucosamine], under setting [1], the Minimum inhibitory concentration result is given as “— (No inhibition at 100 mM of mono- or oligosaccharides)”.

With `OC[C@H]1O[C@H](OC[C@H]2O[C@H](O[C@]3(CO)O[C@H](CO)[C@@H](O)[C@@H]3O)[C@H](O)[C@@H](O)[C@@H]2O)[C@H](O)[C@@H](O)[C@H]1O` [Raffinose], the Minimum inhibitory concentration result under setting [1] was “— (No inhibition at 100 mM of mono- or oligosaccharides)”.

Regarding “Asialotransferrin: asialo form of transferrin (human)”, the “Inhibition of agglutinating activity of BML-17 (in words)” value (“Inhibition” below) is recorded as “inhibition occurred”. This molecule also yielded a Minimum inhibitory concentration (glycoproteins) of 1000 µg/mL.

With Mucin, the “Inhibition” value is listed as “inhibition occurred”. In addition, the Minimum inhibitory concentration (glycoproteins) turned out to be 250 µg/mL. As to “Transferrin: transferrin (human), glycoprotein”, the “Inhibition” value is “inhibition occurred”. Besides, the Minimum inhibitory concentration (glycoproteins) came out at 2000 µg/mL. For “αl-Acid glycoprotein: α1-acid glycoprotein (human)”, the Minimum inhibitory concentration result (glycoproteins) is “— (No inhibition at 100 mM of mono- or oligosaccharides, or at 2 mg/ml of glycoproteins)”.

B1: Fetuin: fetuin (type III, calf serum) (protein)
chain: IPLDPVAGYKEPACDDPDTEQAALAAVDYINKHLPRGYKHTLNQIDSVKVWPRRPTGEVYDIEIDTLETTCHVLDPTPLANCSVRQQTQHAVEGDCDIHVLKQDGQFSVLFTKCDSSPDSAEDVRKLCPDCPLLAPLNDSRVVHAVEVALATFNAESNGSYLQLVEISRAQFVPLPVSVSVEFAVAATDCIAKEVVDPTKCNLLAEKQYGFCKGSVIQKALGGEDVRVTCTLFQTQPVIPQPQPDGAEAEAPSAVPDAAGPTPSAAGPPVASVVVGPSVVAVPLPLHRAHYDLRHTFSGVASVESSSGEAFHVGKTPIVGQPSIPGGPVRLCPGRIRYFKI
Take B1: the “Inhibition” value is listed as “inhibition occurred”. Under “glycoproteins”, this molecule had a Minimum inhibitory concentration of 1000 µg/mL.

B2: Asialofetuin: asialo form of fetuin (protein)
chain: B1 chain
Consider B2, for which the “Inhibition” value is listed as “inhibition occurred”. For the same molecule, the Minimum inhibitory concentration (glycoproteins) was 500 µg/mL.

(Values after patent US7867732B2, “Isolated polypeptide binding to a sugar chain, polynucleotide encoding the polypeptide and use of the polypeptide and polynucleotide” (National University of Corporation Hiroshima University, priority 2005, dated 2011).)
